Patent US20220023269A1, “Methods Of Treating Diabetes In Severe Insulin-Resistant Diabetic Subjects” (Balticgruppen Bio AB, priority 2018, published 2022)

How the values were obtained:
[1] = test system: AMPK in primary mouse WT and hIAPPtg islets; assay: AMPK activation in primary mouse WT and hIAPPtg islets; assay type: cell-based; conditions: 2.5, 5, 10 μM, 2 hours
Method: (§1) All cell lines were lysed in 0.1 M Tris-HCl, pH 6.8, 2% SDS, 10 mM sodium fluoride (SIGMA #S7920), 10 mM β-glycerophosphate (SIGMA #G6376), and 1 mM sodium vanadate (SIGMA #72060) and supernatant collected after 1 minute at 14,000 rpm. Islets (human and mouse) were lysed in 0.1 M Tris-HCl, pH 6.8, 2% SDS, protease inhibitor (Roche #04 693 124 001) and phosphatase inhibitor (Roche #04 906 837 001). Right calf muscle, heart, iWAT, and interscapular BAT was crushed in a pestle using liquid nitrogen and homogenised in ice cold RIPA buffer (150 mM sodium chloride (SIGMA #S7653), 1.0% NP40 (USB), 0.5% sodium deoxycholate (SIGMA #D6750), 0.1% SDS, 50 mM Tris pH 8.0, 20 mM sodium pyrophosphate (SIGMA #71515), 10 mM sodium fluoride, 10 mM β-glycerolphosphate, 1 mM sodium vanadate and protease inhibitor cocktail (Roche #04693124001), 1 tablet/10 ml lysis buffer). The supernatant was collected after 2 min at 14,000 rpm. This procedure was repeated until all fat was eliminated and the supernatant was clear, at 4° C. Samples were analysed on 4-15% polyacrylamide gels. Values were normalised toward AMPKα, β-Actin, GAPDH or the respective non-phosphorylated counterpart.
(§2) Table 3 contains origin of cell lines, growth conditions and settings for activation of AMPK via the test material. […]

CBA mice on HFD = assay: Echocardiography (LV function); assay type: in vivo; conditions: for heart rate: anesthetized
Method: Left ventricle structure and function were analysed with transthoracic, high-frequency echocardiography using the MS550D transducer. The examination was performed during light isoflurane anaesthesia (1.5-2.0% in 800 mL oxygen). Anaesthesia level was adjusted to keep the respiration rate at 80-110 breaths per minute. Left ventricular volumes were determined in B-mode using a Simpson's rule reconstruction. All images were analysed off-line in a blinded way using the Vevo LAB software 1.7.0. Stroke volume, cardiac output and heart rate were analysed, as well as wall thicknesses and left ventricle diameter. Three measurements/animal was performed for mean values.

AMPK in HeLa cells = assay: AMPK activation assay in HeLa cells (LKB1 null); assay type: cell-based, human; conditions: LKB1 null cells; 2.5, 5 or 10 μM, 4 hours
Method: as §1, §2

conscious beagle dogs = assay: Cardiovascular safety pharmacology study using radiotelemetry in conscious beagle dogs; assay type: in vivo; conditions: single oral doses 60, 180, 540 mg/kg
Method: Telemetry analyses was performed by CiToxLAB North America (Laval, Quebec, Canada) in adult male beagle dogs, selected from CiToxLAB North America Dog Telemetry Colony, which had previously undergone surgery for telemetry transmitter implantation to monitor the arterial blood pressure, electrocardiogram, body temperature and locomotor activity (Data Science International, Model D70-PCT). All surgical procedures were performed in accordance with relevant Standard Operating Procedures. A telemetry transmitter was placed between the internal abdominal oblique muscle and the aponeurosis of the transverses abdominis of each animal. The pressure catheter was inserted into the femoral artery and the biopotential leads subcutaneously in a Lead II configuration. Test material was gavaged as a suspension at 60, 180, or 540 mg/kg.

[2] = test material-HFD 0.8 or 2 mg/g, 6 w

Compound: O=C(Nc1nc(=O)n(Cc2ccc(Cl)cc2)s1)c1ccc(Cl)cc1 [test material, 4-chloro-N-[2-[(4-chlorophenyl)methyl]-3-oxo-1,2,4-thiadiazol-5-yl]benzamide]
- pAMPKα [1]: directly increased pAMPKα
- heart rate (CBA mice on HFD; 0.8 mg/g): normalized
- heart rate (CBA mice on HFD; 2 mg/g): reduced heart rate
- increase in stroke volume compared with both RD and HFD (CBA mice on HFD; test material-HFD 0.8 mg/g and 2 mg/g, 6 w): ~20%
- end-diastolic volume (CBA mice on HFD; [2]): normalized end-diastolic volume
- end-systolic volume (CBA mice on HFD; [2]): dose-dependently improved, but did not fully restore
- basal levels of pAMPK and pACC (AMPK in HeLa cells): failed to increase
- blood pressure (systolic and diastolic) (conscious beagle dogs): acutely reduced blood pressure
